Reference: patent US7973078B2, “Sulfonamide compound or salt thereof” (Astellas Pharma Inc., priority 2006, dated 2011)

Tests used:
rat EP1 receptor [1] = target: T1, rat EP1 receptor (Rattus norvegicus, UniProt P70597); test: Receptor binding test using EP1 receptor-expressing cells (3H-PGE2 binding to membrane sample); set-up: expressed in transfected cells; host or cells: HEK293EBNA cells, pCEP4 vector, transient (2 days); crude membrane sample; settings: membrane of HEK293EBNA cells expressing rat EP1; 2.5 nM 3H-PGE2; Ki=IC50/(1+([C]/Kd))
T1 sequence (P70597 1-405): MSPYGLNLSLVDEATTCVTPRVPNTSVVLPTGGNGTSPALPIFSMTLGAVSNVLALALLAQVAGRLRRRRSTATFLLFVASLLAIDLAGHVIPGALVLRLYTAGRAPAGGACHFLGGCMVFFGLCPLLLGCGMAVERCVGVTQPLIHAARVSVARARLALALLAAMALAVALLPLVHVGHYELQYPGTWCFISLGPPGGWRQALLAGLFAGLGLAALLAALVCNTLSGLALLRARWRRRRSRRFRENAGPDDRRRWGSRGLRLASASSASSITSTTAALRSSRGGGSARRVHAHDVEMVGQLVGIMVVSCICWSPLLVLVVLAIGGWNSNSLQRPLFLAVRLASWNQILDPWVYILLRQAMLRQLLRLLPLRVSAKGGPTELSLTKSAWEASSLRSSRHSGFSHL
Excerpt: (2) Receptor Binding Test Using EP1 Receptor-Expressing Cells
A signal peptide (MKTIIALSYIFCLVFA: SEQ ID NO: 1) and a FLAG sequence (DYKDDDDK: SEQ ID NO: 2) were introduced at the N-terminus of a rat EP1 receptor, followed by subcloning into an expression vector (Product Name: pCEP4, Invitrogen Corporation). An HEK293EBNA cell (American Type Culture Collection) was transfected with the rat EP1 expression vector using a transfection regent (Product Name: Fugene-6, Roche-Diagnostics, K.K), and then cultured for 2 days in a medium containing 10% FBS (Product Name: DMEM, Invitrogen Corporation) at 37° C. under 5% CO2. After culturing, the cells were recovered, treated with a cell lysate (20 mM Tris(hydroxymethyl)aminomethane (Tris)buffer pH7.5, 5 mM ethylene diaminetetraacetic acid(EDTA)), and ultracentrifuged (23,000 revolution, 25 minutes×2) for a rough preparation of a membrane sample.
A reaction solution containing the prepared membrane sample (15 μg) and ^3H-PGE2 (150 μl, composition: 10 mM 2-(N-morpholino)ethanesulfonic acid (MES)/potassium hydroxide(KOH) pH6.0, 1 mM EDTA, 10 mM magnesium chloride (MgCl2), 0.02% 3-[(3-Cholamidopropyl)dimethylammonio] propanesulfonate (CHAPS)) was incubated at room temperature for 1 hour. The reaction was terminated with an ice-cooled buffer, and suction-filtered under reduced pressure to trap the bound ^3H-PGE2 to a glass fiber filter (Product Name: UNIFILTER-96, GF/B, PerkinElmer Japan Co., Ltd.), so as to measure the radioactivity of the binding with a microplate scintillation counter (Product Name: TopCount, Packard) using Microscinti (Product Name: Microscinti 20, PerkElmer Japan Co., Ltd.).
The dissociation constant (Kd) and the maximum binding (Bmax) were determined using Scatchard plot (Annals of the New York Academy of Science, US, volume 51, page 660, 1949). Nonspecific bindings were determined as bindings in the presence of an excessive amount (2.5 μM) of label-free PGE2. The assessment of inhibitory effect on ^3H-PGE2 binding by the compound was carried out by adding 2.5 nM ^3H-PGE2 and the compound.
The inhibition constant Ki(nM) for each compound was obtained using the following formula: Ki=IC50/(1+([C]/Kd))
wherein [C] represents the concentration of ^3H-PGE2 employed in a reaction system.

rat EP1 receptor [2] = target: T1, rat EP1 receptor; test: Receptor antagonistic activity using cells expressing an EP1 receptor (PGE2-induced intracellular Ca change, FLIPR); format: cell-based; settings: HEK293 cells stably expressing rat EP1 receptors; 100 nM PGE2; Ca concentration in cells
Procedure: 1. Experiment to Measure a Receptor Antagonistic Activity Using Cells Expressing an EP1 Receptor
HEK293 cells (American Type Culture Collection) that stably expressed rat EP1 receptors were dispensed onto a 96-well poly-D-lysine-coated plate (Product Name: Biocoat, PDL96W black/clear, Nippon Becton Dickinson) to a 2×10^4 cells/well at the day before the experiment, and incubated overnight at 37° C. under 5% carbon dioxide (CO2) in a culture medium containing 10% fetal bovine serum (FBS) (Product Name: DMEM, Invitrogen Corporation). The culture medium was replaced by a loading buffer (a washing solution containing a 4 μM fluorescent indicator (Product Name: Fluo3-AM, Tong Ren Tang Technologies Co. Ltd.):a Hank's balanced salt solution)(HBSS), 20 mM 2-[4-(2-hydroxyethyl)-1-piperazinyl]ethanesulfonic acid (HEPES)-sodium hydroxide (NaOH), 2.5 mM Probenecid, 0.1% bovine serum albumin (BSA)), and left to stand at room temperature for 3 hours, and the cells were washed using a plate washer in which a washing solution had been set up (Product Name: ELx405, BIO-TEK instrument Corporation). The compound that had been preliminarily dissolved and diluted in a washing solution was added thereto, and set up in a system for measuring a calcium (Ca) concentration in a cell (Product Name: FLIPR, Molecular Devices Corporation). After 5 minutes, PGE2 was added to a final concentration of 100 nM, and the change in Ca concentrations in cells was measured. A difference between a maximum value and a minimum value in Ca concentrations in cells was determined, and kept as measurement data. With a response upon addition of 100 nM PGE2 being set at […], and a response upon addition of a buffer being set at 100%, the concentration causing 50% inhibition was determined as an IC50 value.
In the table, Pre represents Preparative Example No. as described later, and Ex represent Example No. as described later.

Compound | Ki (rat EP1 receptor [1]) | IC50 (rat EP1 receptor [2])
CCc1c(Cl)cccc1N(CC(=O)NCc1cccc(C(=O)O)c1)S(=O)(=O)c1ccc(C)cc1 [Ex40] | 0.33 nM | 0.72 nM
Cc1ccc(S(=O)(=O)N(CC(=O)NCc2cccc(C(=O)O)c2)c2cccc(Cl)c2C)cc1 [Ex7] | 0.57 nM | 1.6 nM
COC(=O)c1ccc(CNC(=O)CN(c2cccc(Cl)c2C)S(=O)(=O)c2ccc(C)cc2)cc1 [Ex24] | – | 1 nM
COc1ccc(CNC(=O)CN(c2cccc(Cl)c2C)S(=O)(=O)c2ccc(C)cc2)cc1 [Pre1, N^2-(3-chloro-2-methylphenyl)-N-(4-methoxybenzyl)-N^2-[(4-methylphenyl)sulfonyl] glycinamide] | 0.68 nM | 16 nM
Cc1ccc(S(=O)(=O)N(CC(=O)NCc2ccc(C(=O)NS(C)(=O)=O)cc2)c2cccc(Cl)c2C)cc1 [Ex20] | 0.74 nM | 1.4 nM
Cc1ccc(S(=O)(=O)N(CC(=O)NCc2ccc(-n3cccn3)cc2)c2cccc(Cl)c2C)cc1 [Ex26] | – | 2.5 nM
CCc1c(Cl)cccc1N(CC(=O)NCc1cccc(/C=C/C(=O)O)c1)S(=O)(=O)c1ccc(C)cc1 [Ex74] | 0.35 nM | 1 nM
Cc1ccc(S(=O)(=O)N(CC(=O)NCc2cccc(OCC(=O)O)c2)c2cccc(Cl)c2C)cc1 [Ex16] | 1 nM | 2.4 nM
Cc1ccc(S(=O)(=O)N(CC(=O)NCc2ccncn2)c2cccc(Cl)c2C)cc1 [Pre15] | – | 12 nM
COc1c(Cl)cccc1N(CC(=O)NCc1cccc(C(=O)O)c1)S(=O)(=O)c1ccc(C)cc1 [Ex38] | 0.48 nM | 1.5 nM
